Literature values as cited in patent US10085973B2, “Pharmaceutical composition containing a compound having a thrombopoietin receptor agonistic activity” (Shionogi & Co., Ltd., priority 2012, dated 2018).
Where two headings read alike, the source gives them in different places.

System: chronic liver disease patients with platelet count of less than 5×10^4/μL
Details: cited from earlier work

SMILES: CC1=NN(c2ccc(C)c(C)c2)C(=O)/C1=N\Nc1cccc(-c2cccc(C(=O)O)c2)c1O [Eltrombopag]
- avoidance of platelet transfusion (active drug group, administered for 2 weeks before invasive procedures): 72%
- incidence of portal vein thrombosis (active drug group): 4%
- risk of development of portal vein thrombosis (group having platelet count of 20×10^4/μL or higher during the investigation period): 10.6%
- risk of development of portal vein thrombosis (group with platelet count of less than 20×10^4/μL): 1.2%
- risk of portal vein thrombosis, group 20×10^4/μL or higher vs group less than 20×10^4/μL (human, in vivo): about 9 times
- cases with platelet count 20×10^4/μL or higher at the time of development of portal vein thrombosis (out of 6 cases in the active drug group): 5
